# Assays:
# [1] = organism: Sus scrofa; test: Inhibition of porcine pepsin activity assessed as hydrolysis of N-Cbz-L-Pheylalanyl-L-Tyrosine substrate
# [2] = organism: Sus scrofa; test: Inhibition of porcine pepsin activity assessed as hydrolysis of 0.5% hemoglobin solution substrate after 1 hr
Structure (SMILES),ID50 [1] [µg/mL],ID50 [2] [µg/mL]
CC(C)C[C@@H](NC(=O)[C@@H](NC(=O)[C@@H](NC(=O)OCc1ccccc1)C(C)C)C(C)C)[C@@H](O)CC(=O)O,219,224
CC(C)C[C@H](NC(=O)[C@@H](NC(=O)[C@@H](NC(=O)OCc1ccccc1)C(C)C)C(C)C)[C@H](O)CC(=O)O,12,21
CC(C)C[C@H](NC(=O)[C@@H](NC(=O)[C@@H](NC(=O)OCc1ccccc1)C(C)C)C(C)C)[C@@H](O)CC(=O)O,1,0.1

# Next, values leading:
ID50 [1] [µg/mL],ID50 [2] [µg/mL],Structure (SMILES)
2,0.0052,CC(C)CC(=O)N[C@H](C(=O)N[C@H](C(=O)N[C@@H](CC(C)C)[C@@H](O)CC(=O)N[C@@H](C)C(=O)N[C@@H](CC(C)C)[C@@H](O)CC(=O)O)C(C)C)C(C)C
42,18,CC(C)C[C@@H](NC(=O)[C@@H](NC(=O)[C@@H](NC(=O)OCc1ccccc1)C(C)C)C(C)C)[C@H](O)CC(=O)O
